Assay results taken from patent US20230286973A1, “PROTEIN SECRETION INHIBITORS” (KEZAR LIFE SCIENCES, priority 2020, published 2023).

Tests used:
[1] = Liver Microsome Stability Assay (monkey); settings: monkey liver microsomes, with NADPH, 1.0 uM compound
Protocol: (§1) Stability of a compound was assessed in the presence of liver microsomes from various sources—mouse, rat, monkey and human liver microsomes. 1.0 uM compound, 0.4% DMSO in 0.1 M Potassium Phosphate with 1.0 mg/mL liver microsomes, were incubated at 37° C. with or without 1 mM NADPH. The samples were quenched at 0, and 30 minutes.

[2] = Liver Microsome Stability Assay (human); settings: human liver microsomes, with NADPH, 1.0 uM compound
Protocol: as §1

[3] = system: HER3-ss+4aa/Gaussia Luciferase; test: Dox-Induced Her3-ss-Gluc Assay; format: cell-based; settings: 24 hr Dox induction; 293FRT/TO cells; read-out: 24 hr Dox Inducible Her3(ss + 4)Gluc 293FRT/TO: Mean IC50
How it was run: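 Stable Flp-In 293 T-REx line expressing Gaussia luciferase fused to the HER3 signal sequence plus 4 amino acids under tetracycline-regulated (T-REx) control. Cells plated the day before, then treated with compound dilutions in DMSO/media containing doxycycline and incubated at 37° C., 5% CO2.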

[4] = system: TNFα-FL/Gaussia Luciferase; test: Dox Induced TNFα-FL-Gluc Assay; format: cell-based; settings: for IC50: 24 hr Dox induction, 293FRT/TO cells, read-out: 24 hr Dox Inducible TNFaFLGluc 293FRT/TO: Mean IC50; for 24 hr Dox Inducible TNFaFLGluc 293FRT/TO: TNF/PD1: ratio of TNFaFLGluc IC50 to PD1ssGluc IC50
How it was run: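 Flp-In 293 T-REx cells stably expressing full-length TNFα (aa 1-233) fused at its C-terminus to Gaussia luciferase under tetracycline-regulated control were plated the day before assay. Compound dilutions in DMSO/media containing doxycycline were added and incubated at 37 °C, 5% CO2. Unspecified stereochemistry denotes stereoisomer mixtures.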

[5] = system: PD1-ss+10aa/Gaussia Luciferase; test: Dox-Induced PD1-ss-Gluc Assay; format: cell-based; settings: 24 hr Dox induction; 293FRT/TO cells; read-out: 24 hr Dox Inducible PD1ssGluc 293FRT/TO: Mean IC50
How it was run: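 Flp-In 293 T-REx, stable line; Tet-regulated PD1-ss+10aa fused to Gaussia luciferase; plated day prior; cpd + doxycycline in DMSO/media; 37 °C, 5% CO2.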

[6] = Liver Microsome Stability Assay (rat); settings: rat liver microsomes, with NADPH, 1.0 uM compound
Protocol: as §1

[7] = Liver Microsome Stability Assay (mouse); settings: mouse liver microsomes, with NADPH, 1.0 uM compound
Protocol: as §1

[8] = system: IL-2-FL/Gaussia Luciferase; test: Dox Induced IL2-FL-Gluc Assay; format: cell-based; settings: for IC50: 24 hr Dox induction, 293FRT/TO cells, read-out: 24 hr Dox Inducible IL2FLGluc 293FRT/TO: Mean IC50; for 24 hr Dox Inducible IL2FLGluc 293FRT/TO: IL2/PD1: ratio of IL2FLGluc IC50 to PD1ssGluc IC50
How it was run: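 Flp-In 293 T-REx cells stably carrying doxycycline-inducible full-length IL-2 (aa 1-153) fused at its C-terminus to Gaussia luciferase, selected with hygromycin and blasticidin. Cells were plated the day before, then treated with compounds in DMSO/media containing doxycycline at 37° C, 5% CO2.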

[9] = system: multiple myeloma cell line U266B1; test: U266 Cell Viability Assay; format: cell-based, human; settings: Homo sapiens, U-266, 48 h, U266B1 cells, Celltiter-Glo
How it was run: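 Cells grown in RPMI 1640 with 10% FBS, 2 mM glutamine and penicillin/streptomycin were exposed to compound dilutions in DMSO/media for 48 hours at 37° C., 5% CO2. Viability was read by CellTiter-Glo luminescence. Undefined stereocentres mean data for stereoisomer mixtures.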

[10] = system: multiple myeloma cell line NCI-H929; test: H929 Cell Viability Assay; format: cell-based, human; settings: Homo sapiens, NCI-H929, 48 h, NCI-H929 cells, Celltiter-Glo
How it was run: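 NCI-H929 cells, resuspended in RPMI 1640 with 10% FBS and 2 mM glutamine, were treated with compound dilutions in DMSO/media and incubated 48 hours at 37° C, 5% CO2. Viability was read by CellTiter-Glo luminescence. Compounds drawn without stereochemistry were tested as stereoisomer mixtures.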

| Liver Microsome Stability (Multiple Species): Monkey - % Remaining after 30 min w/NADPH [1] | Liver Microsome Stability (Multiple Species): Human - % Remaining after 30 min w/NADPH [2] | IC50 [3] | IC50 [4] | IC50 [5] | Liver Microsome Stability (Multiple Species): Rat - % Remaining after 30 min w/NADPH [6] | Liver Microsome Stability (Multiple Species): Mouse - % Remaining after 30 min w/NADPH [7] | IC50 [8] | EC50 [9] | EC50 [10] | Compound | 24 hr Dox Inducible TNFaFLGluc 293FRT/TO: TNF/PD1 [4] | 24 hr Dox Inducible IL2FLGluc 293FRT/TO: IL2/PD1 [8] |
| --- | --- | --- | --- | --- | --- | --- | --- | --- | --- | --- | --- | --- |
| 2.72% | 2.98% | 0.0597 µM | 0.584 µM | 0.0272 µM | 5.19% | 30% | 0.069 µM | > 25 µM | 0.416 µM | CC(=O)N[C@H](C)c1ccc(N2CCC[C@@H]2c2csc(NC(=O)c3cccn3Cc3ccncc3)n2)cc1 [Compound A66, N-(4-((R)-1-(4-((R)-1-acetamidoethyl)phenyl)pyrrolidin-2-yl)thiazol-2-yl)-1-(pyridin-4-ylmethyl)-1H-pyrrole-2-carboxamide] | 21.5 | 2.5 |
| 40.4% | 28.9% | 0.0651 µM | 0.862 µM | 0.0236 µM | 51.9% | 82.3% | 0.055 µM | 6.86 µM | 0.562 µM | C[C@@H](N)c1ccc(N2CCC[C@@H]2c2csc(NC(=O)c3cccn3Cc3ccncc3)n2)cc1 [Compound A67, N-(4-((R)-1-(4-((R)-1-aminoethyl)phenyl)pyrrolidin-2-yl)thiazol-2-yl)-1-(pyridin-4-ylmethyl)-1H-pyrrole-2-carboxamide] | 36.4 | 2.3 |
| 11.8% | 25.8% | 0.00498 µM | 0.0441 µM | 0.00232 µM | 16.9% | 27.5% | 0.00604 µM | > 25 µM | 0.0446 µM | CC(=O)Nc1ccc(N2CCC[C@@H]2c2csc(NC(=O)c3cccn3Cc3ccnc(F)c3)n2)cc1 [Compound A68, (R)-N-(4-(1-(4-acetamidophenyl)pyrrolidin-2-yl)thiazol-2-yl)-1-((2-fluoropyridin-4-yl)methyl)-1H-pyrrole-2-carboxamide] | 19 | 2.6 |
| 0.47% | 1.43% | 0.0604 µM | 0.33 µM | 0.052 µM | 35% | 12.1% | 0.116 µM | > 25 µM | 3.18 µM | CC(=O)N[C@@H](C)c1ccc(N2CCC[C@@H]2c2csc(NC(=O)c3cccn3Cc3ccnc(F)c3)n2)cc1 [Compound A69, N-(4-((R)-1-(4-((S)-1-acetamidoethyl)phenyl)pyrrolidin-2-yl)thiazol-2-yl)-1-((2-fluoropyridin-4-yl)methyl)-1H-pyrrole-2-carboxamide] | 6.35 | 2.2 |
| 0.83% | 2.86% | 0.0183 µM | 0.236 µM | 0.0132 µM | 7.79% | 23.7% | 0.03 µM | > 25 µM | 0.385 µM | CC(=O)N[C@H](C)c1ccc(N2CCC[C@@H]2c2csc(NC(=O)c3cccn3Cc3ccnc(F)c3)n2)cc1 [Compound A70, N-(4-((R)-1-(4-((R)-1-acetamidoethyl)phenyl)pyrrolidin-2-yl)thiazol-2-yl)-1-((2-fluoropyridin-4-yl)methyl)-1H-pyrrole-2-carboxamide] | 18 | 2.3 |
